In patent US20160214956A1, “NOVEL SOLUBLE GUANYLATE CYCLASE ACTIVATORS AND THEIR USE” (GLAXOSMITHKLINE INTELLECTUAL PROPERTY DEVELOPMENT LIMITED, priority 2013, published 2016):

Molecular target: T1, human sGC (Homo sapiens, UniProt Q02153)
T1 sequence (Q02153 1-619): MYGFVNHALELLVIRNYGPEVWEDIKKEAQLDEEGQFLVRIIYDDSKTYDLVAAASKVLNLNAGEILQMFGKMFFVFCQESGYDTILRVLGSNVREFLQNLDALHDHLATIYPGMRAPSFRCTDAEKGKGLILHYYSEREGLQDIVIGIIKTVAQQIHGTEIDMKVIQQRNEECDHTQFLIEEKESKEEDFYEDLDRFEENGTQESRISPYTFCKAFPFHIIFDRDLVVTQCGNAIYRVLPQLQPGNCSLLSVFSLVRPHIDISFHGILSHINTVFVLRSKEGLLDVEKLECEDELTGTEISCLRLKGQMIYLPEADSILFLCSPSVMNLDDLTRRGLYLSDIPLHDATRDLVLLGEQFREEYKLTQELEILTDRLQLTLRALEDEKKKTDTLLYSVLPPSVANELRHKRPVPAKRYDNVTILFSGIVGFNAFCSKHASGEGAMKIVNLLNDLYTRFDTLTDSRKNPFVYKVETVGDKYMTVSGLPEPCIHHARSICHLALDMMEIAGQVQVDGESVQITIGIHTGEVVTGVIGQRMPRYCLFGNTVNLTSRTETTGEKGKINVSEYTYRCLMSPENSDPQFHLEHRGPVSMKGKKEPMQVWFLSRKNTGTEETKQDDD
T1 sequence (Q02108 1-690 partner): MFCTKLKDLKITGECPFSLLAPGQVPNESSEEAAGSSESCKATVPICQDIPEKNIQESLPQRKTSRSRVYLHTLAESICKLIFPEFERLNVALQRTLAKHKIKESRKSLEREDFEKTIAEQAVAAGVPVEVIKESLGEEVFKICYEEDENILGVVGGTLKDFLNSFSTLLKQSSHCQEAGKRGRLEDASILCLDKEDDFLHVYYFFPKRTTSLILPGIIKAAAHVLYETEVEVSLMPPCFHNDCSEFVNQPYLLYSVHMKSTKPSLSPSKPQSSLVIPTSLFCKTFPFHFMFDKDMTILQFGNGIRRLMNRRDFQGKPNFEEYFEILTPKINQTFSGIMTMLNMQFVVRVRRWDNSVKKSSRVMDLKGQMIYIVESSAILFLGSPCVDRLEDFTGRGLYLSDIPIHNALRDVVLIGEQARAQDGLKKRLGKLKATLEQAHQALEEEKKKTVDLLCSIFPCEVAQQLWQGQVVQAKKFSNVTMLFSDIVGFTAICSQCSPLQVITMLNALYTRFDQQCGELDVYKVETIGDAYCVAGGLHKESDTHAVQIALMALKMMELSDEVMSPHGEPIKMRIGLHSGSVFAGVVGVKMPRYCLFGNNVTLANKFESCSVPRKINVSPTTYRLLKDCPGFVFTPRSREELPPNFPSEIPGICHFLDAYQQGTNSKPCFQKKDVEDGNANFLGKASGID
Assay: sGC enzyme assay, fluorescence polarisation of labelled cGMP
Type: biochemical
Conditions: human sGC 1 nM, FP assay; concentration able to increase by 5-fold basal cGMP
Procedure: The activity of soluble guanylate cyclase (sGC) was tested in an assay based on measuring the fluorescent polarisation (FP) signal of fluorescently labelled cGMP. FP increased on interaction with an anti-cGMP antibody as the motility of the molecule was reduced. Newly produced cGMP displaced the interaction giving rise to a decrease in polarisation and FP signal which was equated to enzyme activity. Compounds were incubated with human sGC, anti-cGMP antibody, the GTP substrate and fluorescently labelled cGMP. After a period of one hour the assay was stopped with the addition of EDTA and after a further hour the assay was read.
Human sGC was thawed and resuspended in assay buffer (100 mM TRIS, 10 mM MgCl2, 0.2 mM Tween 20, pH7.4, containing 1:100 dilution of sheep anti-cGMP) to give final concentration of 1 nM in the well. A substrate solution was prepared containing GTP and 8-fluo-cGMP in de-ionized water to a final concentration of 25 μM and 50 nM respectively. Assay plates containing 5 μL of various test compounds and of a standard agonist (50 μM-50 nM) in 1% DMSO as 6 point, four fold dilutions across a 96 well plate were used in the assay. The plate also contained 6 wells of DMSO (1%) to produce high control and a cGMP standard curve (14 nM to 10 μM) to convert FP data to cGMP concentration. 25 μL of enzyme mix and 20 μl of substrate mix described above were added to each well of the plate. Samples were mixed on an orbital shaker and then incubated at room temperature for 1 hour. After this incubation period 5 μl of 0.5M EDTA was added to all wells and the plates were incubated for a further hour at room temperature prior to reading the FP signal in an appropriate reader. For data handling FP data were converted to cGMP concentrations and then fitted using ActivityBase software. The activity of a test compound was determined as the pEC500 value which is the concentration able to increase by 5-fold basal cGMP.

## Cc1cc(OCCCC(F)(F)F)ccc1CCc1ccccc1-c1cccc(-n2ncc(C(=O)O)c2C(F)(F)F)n1 [Example 1, 1-(6-(2-(2-methyl-4-(4,4,4-trifluorobutoxy)phenethyl)phenyl)pyridin-2-yl)-5-(trifluoromethyl)-1H-pyrazole-4-carboxylic acid]
  sGC pEC500: 6.95

## Cc1cc(OCCCn2ccc(C(F)(F)F)n2)ccc1CCc1ccccc1-c1cccc(-n2ncc(C(=O)O)c2C(F)(F)F)n1 [Example 3, 1-(6-(2-(2-methyl-4-(3-(3-(trifluoromethyl)-1H-pyrazol-1-yl)propoxy)phenethyl)phenyl)pyridin-2-yl)-5-(trifluoromethyl)-1H-pyrazole-4-carboxylic acid]
  sGC pEC500: 7.88

## O=C(O)c1cnn(-c2cccc(-c3ccccc3OCc3ccc(OCCCC(F)(F)F)cc3F)n2)c1C(F)(F)F [Example 5, 1-(6-(2-((2-fluoro-4-(4,4,4-trifluorobutoxy)benzyl)oxy)phenyl)pyridin-2-yl)-5-(trifluoromethyl)-1H-pyrazole-4-carboxylic acid]
  sGC pEC500: 6.88

## COCCCOc1ccc(COc2ccccc2-c2cccc(-n3ncc(C(=O)O)c3C(F)(F)F)n2)c(F)c1 [Example 6, 1-(6-(2-((2-fluoro-4-(3-methoxypropoxy)benzyl)oxy)phenyl)pyridin-2-yl)-5-(trifluoromethyl)-1H-pyrazole-4-carboxylic acid]
  sGC pEC500: 7.4

## Cc1cc(OCCCC#N)ccc1COc1ccccc1-c1cccc(-n2ncc(C(=O)O)c2C(F)(F)F)n1 [Example 9, 1-(6-(2-((4-(3-cyanopropoxy)-2-methylbenzyl)oxy)phenyl)pyridin-2-yl)-5-(trifluoromethyl)-1H-pyrazole-4-carboxylic acid]
  sGC pEC500: 7.73

## COCCCOc1ccc(COc2ccccc2-c2cccc(-n3ncc(C(=O)O)c3C(F)(F)F)n2)c(C)c1 [Example 10, 1-(6-(2-((4-(3-methoxypropoxy)-2-methylbenzyl)oxy)phenyl)pyridin-2-yl)-5-(trifluoromethyl)-1H-pyrazole-4-carboxylic acid]
  sGC pEC500: 7.79

## Cc1cc(OCCCC(F)(F)F)ccc1COc1ccccc1-c1cccc(-n2ncc(C(=O)O)c2C(F)(F)F)n1 [Example 11, 1-(6-(2-((2-methyl-4-(4,4,4-trifluorobutoxy)benzyl)oxy)phenyl)pyridin-2-yl)-5-(trifluoromethyl)-1H-pyrazole-4-carboxylic acid]
  sGC pEC500: 7.47
